{
  "source": "patent US20210322582A1",
  "about": "“RADIOACTIVE IMIDAZOTHIADIAZOLE DERIVATIVE COMPOUND” (Nihon Medi-Physics Co., Ltd., priority 2018, published 2021)",
  "key": {"HT-29 tumor": {"tested_on": "HT-29 tumor", "test": "Biodistribution of [^111In]ITDA2 in HT-29 tumor cancer-bearing mouse", "format": "in vivo", "conditions": "from Tables 8 and 9", "description": "HT-29 cells (5×10^6 cells/mouse) and MDA-MB-231 cells (1×10^7 cells/mouse) were subcutaneously inoculated into the left shoulders of 5-week old male BALB/c nude mice, respectively, and the mice were used when the tumor diameter reached 6 to 10 mm. A saline solution (100 μL) in which [^111In]ITDA2 (40 kBq) had been dissolved was administered to each of the HT-29 tumor or MDA-MB-231 tumor cancer-bearing mice (n=5) via the tail vein. The HT-29 tumor cancer-bearing mice were slaughtered after the lapse of 1, 4, 8, and 24 hours from the administration, the MDA-MB-231 tumor cancer-bearing mouse was slaughtered after the lapse of 24 hours from the administration, and the blood, spleen, pancreas, stomach, intestines, kidney, liver, heart, lungs, brain, tumor, and muscle were recovered from each of the mice. The weight of each organ was measured, and the amount of radioactivity in each organ was measured by using a gamma counter. The accumulation of radioactivity in each organ except for stomach was expressed by % injected dose/g organ obtained by dividing the ratio of the amount of radioactivity of each organ to the administered amount of radioactivity by the organ weight. The stomach was expressed by % injected dose."}, "CA-IX [1]": {"biological_target": "T1, CA-IX (Homo sapiens, UniProt Q16790)", "test": "In vitro autoradiography of tumor sections using [^123I]HIC205", "format": "binding", "design": "Fresh-frozen sections (each 14 μm) were prepared from a tumor having a tumor volume of around 200 mm^3; from tissue", "description": "Fresh-frozen sections (each 14 μm) were prepared from a tumor having a tumor volume of around 200 mm^3, and then the prepared fresh-frozen sections were sufficiently air dried. The dried fresh-frozen sections were immersed in Tris-buffered saline (TBS), and then immersed in a TBS adjusted so as to have 5 kBq/ml of [^123I]HIC205 and a solution containing 400 μM acetazolamide in the TBS (both contained 0.1% dimethyl sulfoxide (DMSO)), and both the sections were incubated at the same time (at 37° C. for 30 minutes). After that, the resultant sections were washed with TBS and 40% ethanol (EtOH)-containing TBS, respectively, and then air dried. The air-dried sections were each brought into contact with an imaging plate (IP), and were read out by a bioimaging analyzer BAS2000 (manufactured by FUJIFILM Corporation). The section used for autoradiography (ARG) was directly subjected to immunohistochemistry that was performed by using a goat-derived anti-CA-IX antibody.\nThe localization of the radioactivity of [^123I]HIC205 and the difference in the binding of [^123I]HIC205 between the individual treatments are shown FIG. 1.\nThe results of the comparison of the localization of the radioactivity of [^123I]HIC205 with the expression of CA-IX are shown in FIGS. 2A and 2B. […] The region between two arrows indicates the part where the binding of [^123I]HIC205 and the expression of CA-IX are not consistent. Further, FIG. 2B is an enlarged view showing the region between the two arrows of the result of immunohistochemical staining of animal B shown in the lower left of FIG. 2A, in which the result of immunohistochemical staining of FIG. 2A was shown on the left side, and an enlarged view of the region between the two arrows was shown on the right side. The parts indicated by the arrows indicate the overlap of the section."}, "CA-IX [2]": {"biological_target": "T1, CA-IX", "test": "Affinity of non-radioactive HIC205 for CA-IX measured by Biacore", "format": "binding", "design": "purchased R&D Systems Inc", "description": "The affinity was measured by using Biacore (manufactured by GE Healthcare). Human CA-IX (manufactured by R&D Systems Inc.) was immobilized on a sensor chip (CM7) by an amino coupling method. After non-radioactive HIC205 was dissolved in 100% dimethyl sulfoxide (DMSO), the obtained solution was diluted with a running buffer in a stepwise manner by 10 times, and a non-radioactive HIC205 solution containing 0.1% DMSO was finally prepared. Based on this, a 2-fold dilution series was prepared with the running buffer containing 0.1% DMSO, and the measurement was performed. In this regard, the composition of the running buffer was 0.01 M HEPES (pH 7.4), 0.15M sodium chloride, and 0.005% v/v Surfactant P20. The sensorgram obtained from each concentration was directly curve fitted by a non-linear least-squares method, and the affinity was calculated."}},
  "data": [
    {"smiles": "NS(=O)(=O)c1nn2cc(-c3ccc(NC(=O)CN4CCN(CC(=O)O)CCN(CC(=O)Nc5ccc(-c6cn7nc(S(N)(=O)=O)sc7n6)cc5)CCN(CC(=O)O)CC4)cc3)nc2s1", "note": "[ITDA2, 2,2′-(4,10-bis(2-oxo-2-((4-(2-sulfamoylimidazo[2,1-b][1,3,4]thiadiazol-6-yl)phenyl)amino)ethyl)-1,4,7,10-tetraazacyclododecan-1,7-diyl) diacetic acid]", "values": [
      {"measurement": "Tumor accumulation compared with ITDA1", "setting": "HT-29 tumor", "value": "lower values as compared with those of ITDA1"},
      {"measurement": "Tumor/blood ratio compared with ITDA1", "setting": "HT-29 tumor", "value": "lower values as compared with those of ITDA1"},
      {"measurement": "Tumor/muscle ratio compared with ITDA1", "setting": "HT-29 tumor", "value": "almost the same value as that of ITDA1"}
    ]},
    {"smiles": "NS(=O)(=O)c1nn2cc(-c3ccc([123I])cc3)nc2s1", "note": "[[^123I]HIC205]", "values": [
      {"measurement": "Binding on the tumor section with simultaneous incubation with acetazolamide", "setting": "CA-IX [1]; 400 μM acetazolamide", "value": "decreased"},
      {"measurement": "Binding on the tumor section (autoradiogram)", "setting": "CA-IX [1]; 5 kBq/ml, 37° C. for 30 minutes, washed with TBS", "value": "confirmed with contrast on the tumor section"},
      {"measurement": "Localization of the radioactivity after washing the section with 40% ethanol", "setting": "CA-IX [1]; 40% ethanol-containing TBS wash", "value": "significantly reduced"},
      {"measurement": "Binding ability to CA-IX", "setting": "CA-IX [1]; conclusion of autoradiography", "value": "has binding ability to CA-IX"},
      {"measurement": "Localization of radioactivity compared with expression site of CA-IX (immunohistochemical staining)", "setting": "CA-IX [1]; two animals", "value": "mostly consistent"}
    ]},
    {"smiles": "NS(=O)(=O)c1nn2cc(-c3ccc(I)cc3)nc2s1", "note": "[non-radioactive HIC205, 6-(4-iodophenyl)imidazo[2,1-b][1,3,4]thiadiazole-2-sulfonamide]", "values": [
      {"measurement": "Kd", "setting": "CA-IX [2]; immobilized human CA-IX, n = 1", "value": 0.109, "unit": "nM"},
      {"measurement": "Dissociation constant (×10^−3)", "setting": "CA-IX [2]; n = 1", "value": "0.903 ×10^−3 [1/s]"},
      {"measurement": "kon", "setting": "CA-IX [2]; n = 1, read-out: Binding constant (×10^5)", "value": "8.31e+06", "unit": "M⁻¹ s⁻¹"}
    ]}
  ]
}
